Each molecule was assayed against MCH receptor (Homo sapiens, UniProt Q99705) (assay: High throughput functional screening FLIPR/FDSS6000: inhibition of MCH-evoked intracellular Ca2+ changes). Settings: class by percent of control at 10^-7 M or IC50.
Assay type: cell-based
Procedure, shortened: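 Seed cells the day before, then load them with Fluo4-AM for one hour at 37° C and wash in HEPES-buffered HBSS, pH 7.4. Add compound for 3 min, then stimulate with 50 nM MCH. Monitor the calcium transient for 290 s.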

Q: Which class does the source give for `CN(C)c1ccc(NC(=O)N[C@H]2CC[C@@H](Nc3nc(N(C)C)c4ccccc4n3)CC2)cc1` [compound 351] here?
A: 3 (Class 3: The value of percent of control at 10^−7 M was more than 60% or the value of IC50 was more than 200 nM.)

Q: How did the class turn out when `CN(C)c1nc(N[C@H]2CC[C@@H](NC(=O)Nc3cc(Cl)nc(Cl)c3)CC2)nc2ccccc12` [compound 352] was run?
A: 3 (Class 3: The value of percent of control at 10^−7 M was more than 60% or the value of IC50 was more than 200 nM.)

Q: With `Cc1noc(C)c1NC(=O)N[C@H]1CC[C@@H](Nc2nc(N(C)C)c3ccccc3n2)CC1` [compound 353, N-(cis-4-{[4-(dimethylamino)quinazolin-2-yl]amino}cyclohexyl)-N′-(3,5-dimethylisoxazol-4-yl)urea] as the molecule, how does the class read?
A: 2 (Class 2: The value of percent of control at 10^−7 M was from 40% to 60% or the value of IC50 was from 50 nM to 200 nM.)

Q: How did the class turn out when `Cc1noc(-c2ccccc2)c1NC(=O)N[C@H]1CC[C@@H](Nc2nc(N(C)C)c3ccccc3n2)CC1` [compound 354, N-(cis-4-{[4-(dimethylamino)quinazolin-2-yl]amino}cyclohexyl)-N′-(3-methyl-5-phenylisoxazol-4-yl)urea] was run?
A: 1 (Class 1: The value of percent of control at 10^−7 M was less than 40% or the value of IC50 was less than 50 nM.)

Q: Which class does the source give for `Cc1onc(-c2ccccc2)c1NC(=O)N[C@H]1CC[C@@H](Nc2nc(N(C)C)c3ccccc3n2)CC1` [compound 355, N-(cis-4-{[4-(dimethylamino)quinazolin-2-yl]amino}cyclohexyl)-N′-(5-methyl-3-phenylisoxazol-4-yl)urea] here?
A: 1 (Class 1: The value of percent of control at 10^−7 M was less than 40% or the value of IC50 was less than 50 nM.)

Q: How did the class turn out when `C#CCNC(=S)N[C@H]1CC[C@@H](Nc2nc(N(C)C)c3ccccc3n2)CC1` [compound 356] was run?
A: 3 (Class 3: The value of percent of control at 10^−7 M was more than 60% or the value of IC50 was more than 200 nM.)

Q: How did the class turn out when `CN(C)c1nc(N[C@H]2CC[C@@H](NC(=S)Nc3ccc(S(=O)(=O)N4CCCCC4)cc3)CC2)nc2ccccc12` [compound 357] was run?
A: 3 (Class 3: The value of percent of control at 10^−7 M was more than 60% or the value of IC50 was more than 200 nM.)

Q: For `CN(C)c1nc(N[C@H]2CC[C@@H](NC(=S)NCCC3=CCCCC3)CC2)nc2ccccc12` [compound 358], which class is on record?
A: 2 (Class 2: The value of percent of control at 10^−7 M was from 40% to 60% or the value of IC50 was from 50 nM to 200 nM.)

Q: For `Cc1cccc(NC(=S)N[C@H]2CC[C@@H](Nc3nc(N(C)C)c4ccccc4n3)CC2)c1C` [compound 359, N-(cis-4-{[4-(dimethylamino)quinazolin-2-yl]amino}cyclohexyl)-N′-(2,3-dimethylphenyl)thiourea], which class is on record?
A: 1 (Class 1: The value of percent of control at 10^−7 M was less than 40% or the value of IC50 was less than 50 nM.)

Q: `CN(C)c1nc(N[C@H]2CC[C@@H](NC(=S)Nc3c(F)cc(Br)cc3Br)CC2)nc2ccccc12` [compound 360, N-(2,4-dibromo-6-fluorophenyl)-N′-(cis-4-{[4-(dimethylamino)quinazolin-2-yl]amino}cyclohexyl)thiourea] was tested. Which class did it give?
A: 1 (Class 1: The value of percent of control at 10^−7 M was less than 40% or the value of IC50 was less than 50 nM.)

Q: With `Cc1cc(Cl)cc(Cl)c1NC(=S)N[C@H]1CC[C@@H](Nc2nc(N(C)C)c3ccccc3n2)CC1` [compound 361, N-(2,4-dichloro-6-methylphenyl)-N′-(cis-4-{[4-(dimethylamino)quinazolin-2-yl]amino}cyclohexyl)thiourea] as the molecule, how does the class read?
A: 1 (Class 1: The value of percent of control at 10^−7 M was less than 40% or the value of IC50 was less than 50 nM.)

Q: With `Cc1ccc(C)c(NC(=S)N[C@H]2CC[C@@H](Nc3nc(N(C)C)c4ccccc4n3)CC2)c1` [compound 362, N-(cis-4-{[4-(dimethylamino)quinazolin-2-yl]amino}cyclohexyl)-N′-(2,5-dimethylphenyl)thiourea] as the molecule, how does the class read?
A: 2 (Class 2: The value of percent of control at 10^−7 M was from 40% to 60% or the value of IC50 was from 50 nM to 200 nM.)

— US20070010671A1, “Novel quinazoline derivatives and methods of treatment related to the use thereof” (priority 2003, published 2007)
